Laboratory results as given in ChEMBL document CHEMBL6071176, “Development of Phloroglucinol-Linked Tris-Quaternary Ammonium Salt Antimicrobial Peptide Mimics with Low Cytotoxicity and Broad-Spectrum Antibacterial Activity” (J Med Chem, 2024).
Values after ≈ are worked out from the molar mass of the structure shown. Active and inactive are the calls of the source. No cut-off for these calls is given here. *1 amine or outer side, *2 acyl side, *3 side chain or, on linkers, in order; H or OH if unused. Where a SMILES comes first, the peptide text is derived from it. Bridges are numbered along the chain shown (N, C = ends). Side-chain parts run from the residue outwards. [ ]: non-standard residue; d: D form. The star is where a group is joined. X1 = C[C@@H](O)[C@H](CN([C@@H](CCN)C(=O)[*:2])[*:1])N[*:3]; Octanoyl(6-Me) = CCC(C)CCCCC(=O)*; Dab = NCC[C@H](N)C(=O)O

What was measured:
Staphylococcus aureus [1] = assay: Antibacterial activity against NDM-1 gene-resistant Staphylococcus aureus assessed as inhibition of bacterial growth incubated for 18 hrs by CLSI guidelines based assay; assay type: functional
Escherichia coli [2] = assay: Bactericidal activity against early exponential phase Escherichia coli assessed as bacterial killing at 6 ug/ml incubated for 6 hrs by time-kill assay; assay type: functional, organism-based; conditions: dose 6.0 µg/ml
Escherichia coli [3] = assay: Bactericidal activity against early exponential phase Escherichia coli assessed as bacterial killing at 6 ug/ml incubated for 12 hrs by time-kill assay; assay type: functional, organism-based; conditions: dose 6.0 µg/ml
Escherichia coli [4] = assay: Bactericidal activity against late exponential phase Escherichia coli assessed as bacterial killing by measuring bacterial count at 8 ug/ml incubated for 12 hrs by time-kill assay (reference value: 10^8.4 CFU/ml); assay type: functional; conditions: dose 8 µg/ml
Staphylococcus aureus [5] = assay: Antibacterial activity against methicillin-resistant Staphylococcus aureus; assay type: functional
[6] = Selectivity index, ratio of HC50 for human erythrocytes to MIC for methicillin-resistant Staphylococcus aureus; assay type: toxicity, cell-based, RBC; conditions: read-out: Selectivity Index
Cell membrane = assay: Induction of Cytoplasmic membrane depolarization in Staphylococcus aureus assessed as increase in fluorescence intensity measured at 6 times of MIC measured after 4 hrs by DiSC3(5) dye-based fluorescence assay; assay type: subcellular
Escherichia coli [7] = assay: Antimicrobial activity against Escherichia coli assessed as inhibition of growth incubated for 18 hrs by CLSI guidelines based assay; assay type: functional
[8] = Hemolytic activity in sheep red blood cells measured after 1 hr incubation; assay type: toxicity, cell-based, Ovis aries, Erythrocyte
Staphylococcus aureus [9] = assay: Antibacterial activity against methicillin-resistant Staphylococcus aureus assessed as inhibition of bacterial growth measured immediately after addition in presence of plasma; assay type: functional, organism-based
Staphylococcus aureus [10] = assay: Bactericidal activity against early exponential phase Staphylococcus aureus assessed as bacterial killing at 6 ug/ml incubated for 4 hrs by time-kill assay; assay type: functional, organism-based; conditions: dose 6.0 µg/ml
Staphylococcus aureus [11] = assay: Bactericidal activity against early exponential phase Staphylococcus aureus assessed as bacterial killing at 6 ug/ml incubated for 12 hrs by time-kill assay; assay type: functional, organism-based; conditions: dose 6.0 µg/ml
Staphylococcus aureus [12] = assay: Anti-biofilim activity against Staphylococcus aureus biofilm assessed bio-film thickness at 32 ug/ml measured after 24 hrs incubation by SYTO 9 staining based […] laser scanning microscopy (CLSM) (reference value: 29.5 microm); assay type: functional; conditions: dose 32 µg/ml
Staphylococcus aureus [13] = assay: Anti-bacterial activity against 100 times rifampicin induced persistent cells of Staphylococcus aureus assessed as reduction in persistent cells at 32 times of MIC; assay type: functional
Staphylococcus aureus [14] = assay: In vivo antibacterial activity against methicillin-resistant Staphylococcus aureus subcutaneously infected in SPF female Kunming mouse model assessed as bacteria count in dissected mouse at 10 mg/kg/day injected into blister after 6 hrs of infection measured after 6 consecutive treatments; assay type: functional, organism-based
Staphylococcus aureus [15] = assay: Antibacterial activity against methicillin-resistant Staphylococcus aureus assessed as inhibition of bacterial growth incubated for 18 hrs by CLSI guidelines based assay; assay type: functional
Staphylococcus aureus [16] = assay: Resistance development in Staphylococcus aureus assessed as increase in MIC measured after 20 passages of continues culture; assay type: functional
[17] = Hemolytic activity in human erythrocytes; assay type: toxicity, cell-based, Erythrocyte
Staphylococcus aureus [18] = assay: Antibacterial activity against Staphylococcus aureus; assay type: functional
[19] = Hemolytic activity in red blood cells (unknown origin); assay type: toxicity, cell-based, Erythrocyte
[20] = Selectivity index, ratio of HC50 for RBC (unknown origin) to MIC for Staphylococcus aureus; assay type: toxicity, cell-based; conditions: red blood cells; read-out: Selectivity Index
Staphylococcus aureus [21] = assay: Antimicrobial activity against Staphylococcus aureus assessed as inhibition of growth incubated for 18 hrs by CLSI guidelines based assay; assay type: functional
[22] = Selectivity index, ratio of HC50 for sheep red blood cells to MIC for Staphylococcus aureus; assay type: toxicity, cell-based, RBC; conditions: read-out: Selectivity Index
[23] = Cytotoxicity against human Gastric mucosal cells measured after 24 hrs by CCK-8 assay; assay type: toxicity, cell-based, Gastric mucosal cell
Enterococcus faecalis = assay: Antimicrobial activity against Enterococcus faecalis assessed as inhibition of growth incubated for 18 hrs by CLSI guidelines based assay; assay type: functional
[24] = test system: Stenotrophomonas maltophilia; assay: Antimicrobial activity against Stenotrophomonas maltophilia assessed as inhibition of growth incubated for 18 hrs by CLSI guidelines based assay; assay type: functional

In the case of CNC(C)[C@@H]1CC[C@@H](N)[C@@H](O[C@H]2[C@H](O)[C@@H](O[C@H]3OC[C@](C)(O)[C@H](NC)[C@H]3O)[C@H](N)C[C@@H]2N)O1.CN[C@@H]1[C@@H](O)[C@@H](O[C@@H]2[C@@H](O)[C@H](O[C@H]3O[C@H](C(C)N)CC[C@H]3N)[C@@H](N)C[C@H]2N)OC[C@]1(C)O.CN[C@@H]1[C@@H](O)[C@@H](O[C@@H]2[C@@H](O)[C@H](O[C@H]3O[C@H](CN)CC[C@H]3N)[C@@H](N)C[C@H]2N)OC[C@]1(C)O (stereo partly drawn), the MIC90 (Staphylococcus aureus [1]) is reported as over 32 µg/mL.

For CO[C@@]1(NC(=O)C(C(=O)O)c2ccc(O)cc2)C(=O)N2C(C(=O)O)=C(CSc3nnnn3C)CO[C@@H]21 (stereo partly drawn) [MOXALACTAM], the Activity (Escherichia coli [2]) was “Active”, the Activity (Escherichia coli [3]) was “Active” and the Activity (Escherichia coli [4]) was 1 10^4CFU/ml.

Work on CCCCCCN(Cc1ccc(-c2ccc(CN(CCCCCC)C(=O)[C@@H](N)CCCCN)cc2)cc1)C(=O)[C@@H](N)CCCCN.O=C(O)C(F)(F)F.O=C(O)C(F)(F)F.O=C(O)C(F)(F)F.O=C(O)C(F)(F)F yielded an MIC (Staphylococcus aureus [5]) of 3.1 µg/mL and a selectivity ratio [6] of 74.2.

For CC[C@H](C)[C@H](NC(=O)CN)C(=O)NCC(=O)N[C@@H](C)C(=O)N[C@H](C(=O)N[C@@H](CC(C)C)C(=O)N[C@@H](CCCCN)C(=O)N[C@H](C(=O)N[C@@H](CC(C)C)C(=O)N[C@H](C(=O)N[C@H](C(=O)NCC(=O)N[C@@H](CC(C)C)C(=O)N1CCC[C@H]1C(=O)N[C@@H](C)C(=O)N[C@@H](CC(C)C)C(=O)N[C@H](C(=O)N[C@@H](CO)C(=O)N[C@@H](Cc1c[nH]c2ccccc12)C(=O)N[C@H](C(=O)N[C@@H](CCCCN)C(=O)N[C@@H](CCCNC(=N)N)C(=O)N[C@@H](CCCCN)C(=O)N[C@@H](CCCNC(=N)N)C(=O)N[C@@H](CCC(N)=O)C(=O)N[C@@H](CCC(N)=O)C(N)=O)[C@@H](C)CC)[C@@H](C)CC)[C@@H](C)O)[C@@H](C)O)C(C)C)C(C)C, the Activity (Cell membrane) was “Active”.

In the case of CN[C@H](CC(C)C)C(=O)N[C@H]1C(=O)N[C@@H](CC(N)=O)C(=O)N[C@H]2C(=O)N[C@H]3C(=O)N[C@H](C(=O)N[C@H](C(=O)O)c4cc(O)cc(O)c4-c4cc3ccc4O)[C@H](O)c3ccc(c(Cl)c3)Oc3cc2cc(c3O[C@@H]2O[C@H](CO)[C@@H](O)[C@H](O)[C@H]2O[C@H]2C[C@](C)(N)[C@H](O)[C@H](C)O2)Oc2ccc(cc2Cl)[C@H]1O [VANCOMYCIN], the MIC (Escherichia coli [7]) is reported as 2 µg/mL (≈ 1.38 µM), the HC50 at 1 h [8] is reported as 805 µg/mL and the Activity (Staphylococcus aureus [9]) is reported as “Active”. The Activity (Staphylococcus aureus [10]) was “Active”, the Activity (Staphylococcus aureus [11]) was “Active” and the Activity (Staphylococcus aureus [12]) was 22.1 um. For the same molecule, the Activity (Staphylococcus aureus [13]) was 3.2 log10CFU/ml and the Activity (Staphylococcus aureus [14]) was “Active”.

Work on CC[C@H]1OC(=O)[C@H](C)[C@@H](O[C@H]2C[C@@](C)(OC)[C@@H](O)[C@H](C)O2)[C@H](C)[C@@H](O[C@@H]2O[C@H](C)C[C@H](N(C)C)[C@H]2O)[C@](C)(O)C[C@@H](C)C(=O)[C@H](C)[C@@H](O)[C@]1(C)O [ERYTHROMYCIN] yielded an MIC90 (Staphylococcus aureus [1]) of over 32 µg/mL.

In the case of C[C@H]1c2cccc(O)c2C(=O)C2=C(O)[C@]3(O)C(=O)C(C(N)=O)=C(O)[C@@H](N(C)C)[C@@H]3[C@@H](O)[C@@H]21 [DOXYCYCLINE ANHYDROUS], the MIC90 (Staphylococcus aureus [15]) is reported as at least 16 µg/mL and the MIC90 (Staphylococcus aureus [1]) is reported as over 32 µg/mL.

Work on CCn1cc(C(=O)O)c(=O)c2cc(F)c(N3CCNCC3)cc21 [NORFLOXACIN] yielded an MIC (Staphylococcus aureus [16]) of 4 µg/mL.

Work on CCCCCCN(CCCOc1ccccc1-c1ccccc1OCCCN(CCCCCC)C(=O)[C@@H](N)CCCCN)C(=O)[C@@H](N)CCCCN.Cl.Cl.Cl.Cl yielded an MIC (Staphylococcus aureus [5]) of 0.5 µg/mL, an HC50 [17] of over 1000 µg/mL and a selectivity ratio [6] of over 2000.

For CC(C)CCCCC(=O)N[C@@H](CCN)C(=O)N[C@@H](CN[C@@H](CCN)C(=O)N[C@H]1CCNC(=O)[C@H]([C@@H](C)O)NC(=O)[C@H](CCN)NC(=O)[C@H](CCN)NC(=O)[C@H](CC(C)C)NC(=O)[C@@H](CC(C)C)NC(=O)[C@H](CCN)NC1=O)[C@@H](C)O.CCC(C)CCCCC(=O)N[C@@H](CCN)C(=O)N[C@@H](CN[C@@H](CCN)C(=O)N[C@H]1CCNC(=O)[C@H]([C@@H](C)O)NC(=O)[C@H](CCN)NC(=O)[C@H](CCN)NC(=O)[C@H](CC(C)C)NC(=O)[C@@H](CC(C)C)NC(=O)[C@H](CCN)NC1=O)[C@@H](C)O (stereo partly drawn) (H-[X1]([Dab-Octanoyl(6-Me)])[Dab][Dab][dL]L[Dab][Dab]T; lactam 2-C), the MIC (Staphylococcus aureus [16]) was 4 µg/mL.

CCCCCCNC(=O)C[N+](C)(C)CCCCCCCCCCCC[N+](C)(C)CC(=O)NCCCCCC.[Br-].[Br-] gave an MIC (Staphylococcus aureus [18]) of 1 µg/mL, an HC50 [19] of 805 µg/mL and a selectivity ratio [20] of 805. It also gave an MIC (Staphylococcus aureus [21]) of 1 µg/mL, an HC50 at 1 h [8] of over 1280 µg/mL and a selectivity ratio [22] of over 1280. The CC50 at 24 h [23] was 19.1 µg/mL.

For C[N+](C)(CCCCCOc1cc(OCCCCC[N+](C)(C)CCCCc2ccccc2)cc(OCCCCC[N+](C)(C)CCCCc2ccccc2)c1)CCCCc1ccccc1.[Br-].[Br-].[Br-], the MIC (Staphylococcus aureus [21]) was 1 µg/mL, the MIC (Enterococcus faecalis) was 2 µg/mL and the MIC (Escherichia coli [7]) was 2 µg/mL. For the same molecule, the MIC [24] was 2 µg/mL, the HC50 at 1 h [8] was over 1280 µg/mL and the selectivity ratio [22] was over 1280. For the same molecule, the CC50 at 24 h [23] was under 30 µg/mL.

Work on CCCCCCCNC(=O)C[N+](C)(C)CCCCCCCCCCCC[N+](C)(C)CC(=O)NCCCCCCC.[Br-].[Br-] yielded an MIC (Staphylococcus aureus [18]) of 0.5 µg/mL, an HC50 [19] of 1220 µg/mL and a selectivity ratio [20] of 2440. It also gave an MIC (Escherichia coli [7]) of 0.062 µg/mL and a CC50 at 24 h [23] of 38.1 µg/mL.

Work on CO[C@H]1/C=C/O[C@@]2(C)Oc3c(C)c(O)c4c(O)c(c(/C=N/N5CCN(C)CC5)c(O)c4c3C2=O)NC(=O)/C(C)=C\C=C\[C@H](C)[C@H](O)[C@@H](C)[C@@H](O)[C@@H](C)[C@H](OC(C)=O)[C@@H]1C [RIFAMPIN] yielded an MIC90 (Staphylococcus aureus [1]) of over 32 µg/mL.
